Patent US8192949B2, “Microaggregates including endothelial cells” (priority 2005, dated 2012)

Experiments:
[1] = system: capillary-associated cells (mostly endothelial cells) in neuroendocrine (pulmonary carcinoid) tumor microclusters; assay: In situ microcapillary viability assay (ISMCVA), fast green/H&E dye exclusion on tumor microclusters; type: cell-based, human; details: microclusters cultured for 96 hours in presence of bevacizumab; FIGS. 3B and 4B
Procedure: (§1) Solid tumors are minced to pieces smaller than 1 mm (small enough to be aspirated into a standard disposable 10 ml pipette) with high quality curved surgical scissors. Medium in which said tumors may have been transported is reserved, along with the supernatant from the tissue mince. Scissor-minced tumor pieces are digested with collagenase/DNase in RPMI-1640 containing antibiotics and 10% fetal calf serum. Specimens are digested in 50 ml disposable polypropylene centrifuge tubes, assisted by gentle mixing with plastic-coated, magnetic stirring bars over a stirring plate. Specimens are thusly mixed until complete gross digestion has taken place—typically about 2-3 hours for a 1-3 gram specimen. […]
(§2) Viable microaggregates are enriched from medium containing a mixture of microclusters that exist in the minced, digested tissue along with single cells, normal cells, red blood cells, dead cells, and debris by means of “quickspins.” Quickspins consist of repeated very brief centrifugations at 50-500×g, in which the centrifuge tube is first mixed by moderate hand-shaking, placed in a standard, room temperature, preparatory centrifuge, and then accelerated to the desired speed (determined for each centrifuge by empiric trials) and then immediately turned off once the centrifuge has reached the desired speed and then allowed to coast to a stop. […]

[2] = system: tumor cells in neuroendocrine (pulmonary carcinoid) tumor microclusters; assay: as above; type: cell-based, human; details: microclusters cultured for 96 hours in presence of bevacizumab; FIGS. 3B and 4B
Procedure: as §1, §2

For bevacizumab, the “viability of capillary-associated cells (fast green staining)” value [1] was “most capillary-associated cells are dead” and the “viability of tumor cells (fast green / H/E staining)” value [2] was “tumor cells remain viable”.
